Source: publication PMC8227885 (Viruses, 2021)

The substances below were run on RBD.
Type: binding, SARS-CoV-2

Substance	biosensor activity with RBD-Lg, ACE2 deletions and mutants
ACE2 K31	significantly reduced biosensor activity
K353A	almost abolished biosensor activity
Sm-ACE2-18-515	significantly lower than that of Sm-ACE2-18-615/RBD-Lg
Sm-ACE2-18–415	reduced biosensor activity
